Data set [1] relates to RmELA. The data set is described as follows: Acyl lysine hydrolysis (substrate specificity of purified RmELA). It is filed as biochemical, Rhodothermus marinus. The following applies: for hydrolysis (degradation) activity of the enzyme for the acyl lysine, in words: 4 mM substrate, pH 7.0, 37° C.; for Hydrolysis activity: acyl lysine 4 mM, 100 mM Tris-HCl (pH 7.0), 37° C., 1 U = 1 μmol lysine per 1 minute. As to the method: To look into the substrate specificity of the acyl lysine hydrolysis of this enzyme, the reactivity of the enzyme as described herein for various kinds of acyl lysines was examined. […] Activity measurement was performed with the various kinds of acyl lysines (4 mM) and 100 mM Tris-HCl (pH 7.0) at 37° C., and the activity was calculated by measuring the concentration of lysine produced along with the degradation of the acyl lysines. For the measurement of L-lysine, BF-5 and a lysine electrode (manufactured by Oji Scientific Instruments Co., Ltd.) was used, whereas for the measurement of D-lysine, an amino acid analyzer (manufactured by Hitachi, Ltd.) was used. Here, 1 U was defined as an enzyme amount that releases 1 μmol lysine from each of the acyl lysines (per 1 minute).

The nature of data set [2]: Storage stability of enzymatic solutions. The class given is biochemical. The following applies: stored at 4° C., 15° C. and 25° C. As for the experimental part:
A culture solution of the C. glutamicum expression strain of RmELA acquired by the method described in Example 1, 1-6) was centrifuged to collect the supernatant, which was membrane-sterilized with a 0.45 μm filter to obtain an RmELA enzymatic solution. A WDK010/pPKT-tatABC strain (WO 2010/067871) as a C. glutamicum expression strain of ELA native to Streptomyces mobarensis (SmELA) was cultured and sterilized by a similar procedure to obtain an SmELA enzymatic solution.
These enzymatic solutions were stored at temperatures of 4° C., 15° C., and 25° C., and the transition of enzyme activity was examined. The activity was represented as relative activity (%) with the activity value when the storage started as 100.

The nature of data set [3]: Synthesis reaction of Nε-octanoyl-L-lysine by RmELA enzymatic solution, L-lysine consumption. The class given is biochemical. As for the experimental part: Using the RmELA enzymatic solution prepared by the method described in Example 7, the synthesis reaction of Nε-octanoyl-L-lysine was carried out. A 100 ml of a reaction solution was prepared so as to give final concentrations of 300 mmol/L octanoic acid, 300 mmol/L L-lysine hydrochloride, 0.1 mmol/L ZnSO4, and 2.1 U/ml the RmELA enzymatic solution and was stirred at 300 rpm using a 200 ml jar fermenter. The pH was adjusted to be 7.0 using 1 N of NaOH, and the reaction temperature was adjusted to be 50° C.
During the reaction, the reaction solution was sampled over time, and an L-lysine concentration within the reaction solution was measured. […] When the reaction solution after 23 hours was analyzed by HPLC, Nε-octanoyl-L-lysine was produced by 80% in terms of yield relative to L-lysine. […] No peak of Nα-octanoyl-L-lysine was detected.
The substrate (octanoic acid and L-lysine hydrochloride) final concentration in the reaction condition was changed to (1) 500 mmol/L, (2) 750 mmol/L, and (3) 1,000 mmol/L to carry out the synthesis reaction of Nε-octanoyl-L-lysine.
During the reaction, the reaction solution was sampled over time, and an L-lysine concentration in the reaction solution was measured. […] Respective consumption rates relative to the charged L-lysine and reaction times were (1) 87% after 35 hours, (2) 92% after 35 hours, and (3) 94% after 57 hours.

Data set [4] in a line: Enzyme activity after heat sterilization of the culture solution. It is filed as biochemical. The conditions noted are these: 75° C. for 30 minutes. As for the experimental part:
Whether a C. glutamicum expression strain of RmELA could be sterilized with heat while maintaining the enzyme activity was examined. The culture solution acquired by the method described in Example 1, 1-6) in an amount of 150 μl was dispensed to a PCR tube and was subjected to heat treatment at 75° C. for 30 minutes using a block heater to obtain a heat treatment culture solution. The heat treatment culture solution and the heat treatment culture solution serially diluted (with a dilution rate of ×10^2) with a physiological saline solution (0.85% of NaCl) were applied to a CM2G agar medium (10 g of a yeast extract, 10 g of polypeptone, 5 g of glucose, 5 g of sodium chloride, 0.2 g of DL-methionine, 15 g of agar, pH 7.2, and filled up to 1 L with water) containing 25 mg/l of kanamycin, and the number of formed colonies was counted to examine the number of living bacteria of the RmELA expression strain. As a result, no colony formation was detected. […] When a culture solution without the heat treatment was examined by the same method, the number of living bacteria was 7.0×10^10 cfu/ml.
Subsequently, the culture solution and the heat treatment culture solution explained above were centrifuged individually, the supernatants were collected, and the hydrolysis activity of Nε-acetyl-L-lysine within the supernatants was measured.

The nature of data set [5]: Optimum pH of the enzyme. The conditions noted are these: 37° C., acetate, Tris-HCl and borate buffers, pH 4.2 to 9.8. The class given is biochemical. As to the method: Using the purified enzyme acquired by the method described in Example 3, the optimum pH and pH stability of the enzyme with Nε-acetyl-L-lysine as a substrate were examined.
Using various kinds of buffers (pH 4.2 to 6.0: acetate buffers, pH 7.2 to 8.8: Tris-HCl buffers, and pH 9.3 to 9.8: borate buffers) at 37° C., activity at various pH was measured. The activity was represented as relative activity (%) with the maximum activity value as 100. The optimum pH of this enzyme was pH 5.0.

Data set [6] is described as follows: Synthesis reaction of Nε-dodecanoyl-L-lysine, L-lysine consumption. It is filed as biochemical. The conditions noted are these: 300 mmol/L substrates, 3 U/ml, after 24 hours. As for the experimental part: Using the RmELA enzymatic solution prepared by the method described in Example 7, the synthesis reaction of Nε-dodecanoyl-L-lysine was carried out. A 200 ml of a reaction solution was prepared so as to give final concentrations of 300 mmol/L dodecanoic acid, 300 mmol/L L-lysine hydrochloride, 0.1 mmol/L ZnSO4, 10% methanol, and 3 U/ml the RmELA enzymatic solution and was stirred at 300 rpm using a 500 ml jar fermenter. The pH was adjusted to be 7.0 using 1 N of NaOH, and the reaction temperature was adjusted to be 55° C.
Nα-dodecanoyl-L-lysine was produced by only 0.06% in terms of yield relative to L-lysine.
For the measurement of lysine, BF-5 and a lysine electrode (manufactured by Oji Scientific Instruments Co., Ltd.) were used. The HPLC analysis was performed with Column YMC-UltraHT Pro C18, 50×2.0 mm I.D. (manufactured by YMC Co., Ltd.), a mobile layer of NaH2PO4 (pH 3.0)/MeOH=3/7, and UV 210 nm.
When the reaction pH was changed from pH 7.0 to pH 6.0, and the synthesis reaction of Nε-dodecanoyl-L-lysine was carried out by a method similar to the above, 96% of the charged L-lysine was consumed after 24 hours (FIG. 7). […] At pH 7.0, dodecanoic acid in the reaction solution was emulsified to give a high viscosity solution. […]

Data set [7] is classed as biochemical. The following applies: incubated at 30° C. to 100° C. for 1 hour. As to the method: Using the purified enzyme acquired by the method described in Example 3, the optimum reaction temperature and temperature stability of the enzyme with Nε-acetyl-L-lysine as a substrate were examined.
Subsequently, remaining activity after being incubated at certain temperatures (30° C. to 100° C.) for 1 hour was measured. The activity was represented as relative activity (%) with the activity value before the incubation as 100.

As for `CC(=O)N[C@@H](CCCCN)C(=O)O` [Nα-Acetyl-L-Lys, Nα-acetyl-L-lysine], in data set [1], the “hydrolysis (degradation) activity of the enzyme for the acyl lysine, in words” value (shortened to “hydrolysis (degradation) activity”) is “did not exhibit hydrolysis activity” and the Hydrolysis activity worked out at 0.0 U/mg.
Take `NCCCC[C@H](NC(=O)c1ccccc1)C(=O)O` [Nα-Benzoyl-L-Lys, Nα-benzoyl-L-lysine]: in data set [1], the “hydrolysis (degradation) activity” value is on record as “did not exhibit hydrolysis activity” and the Hydrolysis activity worked out at 0.0 U/mg.
On to `N[C@@H](CCCCNC(=O)[C@@H](N)CCC(=O)O)C(=O)O` [Nε-(αGlu)-L-Lys], for which, in data set [1], the Hydrolysis activity came out at 36.8 U/mg.
On the same count and under the same terms, the result for `N[C@@H](CCCCNC(=O)CC[C@H](N)C(=O)O)C(=O)O` [Nε-(γGlu)-L-Lys] reads 41.3 U/mg.
For `CC(=O)NCCCC[C@@H](N)C(=O)O` [Nε-Acetyl-D-Lys, Nε-acetyl-D-lysine], in data set [1], the “hydrolysis (degradation) activity” value was “did not exhibit hydrolysis activity” and the Hydrolysis activity came to 0.0 U/mg.
Turning to `CC(=O)NCCCC[C@H](N)C(=O)O` [Nε-Acetyl-L-Lys, Nε-acetyl-L-lysine], in data set [1], the “hydrolysis (degradation) activity” value was “exhibited degradation activity” and the Hydrolysis activity came out at 17.5 U/mg.
Take `N[C@@H](CCCCNC(=O)c1ccccc1)C(=O)O` [Nε-Benzoyl-L-Lys, Nε-benzoyl-L-lysine]: in data set [1], the “hydrolysis (degradation) activity” value is “exhibited degradation activity” and the Hydrolysis activity is listed as 90.1 U/mg.

B1: RmELA: amidohydrolase native to Rhodothermus marinus (NCBI; WP_012844854.1, SEQ ID NO: 1), Nε-acyl-L-lysine-specific aminoacylase (protein, listed as Rhodothermus marinus)
chain: MLLLPMQARGQADYVLVNGRLYTVDPAQPVAEAMAVRGDRILMVGTTAQLTAAYPDAPHIDLQGRAVVPGFIDAHAHLMGLGLSRLRADLTGTRSVEEILERLREFARQLPEGAWLLGRGWDQNDWPVKEFPTRQMLDEIFPERPVWLVRIDGHAAWANTAAIRRANPALLTEQIPDPEGGHIVRDAEGRLTGVFIDEAMDLIARHIPPPSEAELEEALRRAVAEANRFGLTGVHDAGASLKTIQGYRRAVDDGTLTLRLYVMVDGLGEAFDYFCEHGPLLDYGGRLTVRSVKFYIDGALGSRGAALLADYSDDPGNRGLLRHEPEVFADMVQRAMKCGFQVNTHAIGDRGVRVVLDAYEKALRTLGRTVGRHRVEHAQVVAPEDFARFAELDLIASMQPTHATSDMYWAEDRLGPERVRGAYAWRTFLEHGVRLAFGSDFPVELANPLLGFYAAITRQDAEGWPEGGWYPEQRLTREEALRAFTLDAAYAAFQEHELGSLTPGKYADFVVLSHDIMTVPPEQILQTRVLATFFGGRCVYHDPEAAGLCPASP
Regarding B1, in data set [2], the “transition of enzyme activity during storage” value is recorded as “did not decrease in enzyme activity”. For the same molecule, the “charged L-lysine consumed” value in data set [3] (300 mmol/L substrates, 2.1 U/ml, pH 7.0, 50° C., after 23 hours) is recorded as 80%; in data set [6] (pH 6.0, 55° C.) it was 96%; in data set [6] (pH 7.0, 55° C.), 98%. For the same molecule, the “consumption rate relative to the charged L-lysine” value is listed as 87% in data set [3] (substrate 500 mmol/L, after 35 hours); 92% in data set [3] (substrate 750 mmol/L, after 35 hours); 94% in data set [3] (substrate 1,000 mmol/L, after 57 hours). For the same molecule, the “enzyme activity after heat treatment” value in data set [4] is listed as “no decrease in enzyme activity”. The “optimum pH” value in data set [5] is 5.0; in data set [5] (listed as protein having the amino acid sequence of SEQ ID NO: 1), “about 5”. For the same molecule, in data set [7], the “temperature up to which no decrease in activity was shown” value is “up to 80 °C”.

(Values after patent US10266857B2, “Method for producing Nε-acyl-L-lysine” (AJINOMOTO CO., INC., priority 2015, dated 2019).)
